Entries after “also recorded” stand apart in the source; their conditions may differ. Each block holds one compound with its values, some of them ahead of it.
Assays:
sEH [1] = target: T1, sEH (Homo sapiens, UniProt P34913); assay: sEH inhibition (enzyme); assay type: biochemical
T1 sequence (P34913 1-555): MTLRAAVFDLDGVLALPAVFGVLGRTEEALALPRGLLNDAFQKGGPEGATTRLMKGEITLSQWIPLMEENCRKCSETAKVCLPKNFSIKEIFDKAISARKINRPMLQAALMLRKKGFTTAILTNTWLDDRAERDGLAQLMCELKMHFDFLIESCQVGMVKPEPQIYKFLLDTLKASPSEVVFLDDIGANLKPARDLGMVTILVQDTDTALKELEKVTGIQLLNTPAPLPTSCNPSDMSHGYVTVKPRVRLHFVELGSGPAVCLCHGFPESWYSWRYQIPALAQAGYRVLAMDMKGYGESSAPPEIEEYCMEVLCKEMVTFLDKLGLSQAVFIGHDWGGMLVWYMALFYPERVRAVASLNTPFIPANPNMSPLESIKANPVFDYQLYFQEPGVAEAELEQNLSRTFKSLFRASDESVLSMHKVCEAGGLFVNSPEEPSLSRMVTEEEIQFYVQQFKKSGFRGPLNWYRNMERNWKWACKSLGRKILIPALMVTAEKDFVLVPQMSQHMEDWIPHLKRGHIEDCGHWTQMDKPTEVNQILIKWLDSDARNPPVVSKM

sEH [2] = target: T1, sEH; assay: sEH inhibition (cellular); assay type: cell-based
FXR [3] = target: T2, FXR (Homo sapiens, UniProt Q96RI1); assay: FXR activation (EC50, efficacy vs GW4064, mode); assay type: cell-based
T2 sequence (Q96RI1 1-486): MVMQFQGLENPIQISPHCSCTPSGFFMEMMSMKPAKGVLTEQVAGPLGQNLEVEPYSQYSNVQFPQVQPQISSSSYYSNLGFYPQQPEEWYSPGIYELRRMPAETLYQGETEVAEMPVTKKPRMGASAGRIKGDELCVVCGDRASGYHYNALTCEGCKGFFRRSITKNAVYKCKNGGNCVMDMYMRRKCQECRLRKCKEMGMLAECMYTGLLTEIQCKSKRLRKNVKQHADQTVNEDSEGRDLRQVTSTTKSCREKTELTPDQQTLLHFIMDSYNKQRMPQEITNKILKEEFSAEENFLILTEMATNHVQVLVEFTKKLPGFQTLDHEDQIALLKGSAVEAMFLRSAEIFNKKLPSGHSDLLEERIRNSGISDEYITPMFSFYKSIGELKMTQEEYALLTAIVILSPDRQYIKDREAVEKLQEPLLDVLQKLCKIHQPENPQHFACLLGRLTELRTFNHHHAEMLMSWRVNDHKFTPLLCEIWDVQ

UUO mice [4] = assay: UUO renal fibrosis model, Protocol 1 (preventive pre-treatment); assay type: in vivo, Male C57Bl/6J mice
Protocol: This study was approved and conducted according to guidelines of the Institutional Animal Care and Use Committee, Medical College of Wisconsin. The Biomedical Resource Center at the Medical College of Wisconsin housed animals with free access to water and food and a 12/12 h light-dark cycle. Male C57B1/6J mice (8-10 weeks old) were purchased from Jackson Laboratories, Bar Harbor, Me. Mice were administered 2.0% isoflurane to induce anesthesia prior to UUO surgery. UUO surgery was conducted with by obstructing the left ureter proximal to the renal pelvis using a 6-o silk tie (Sharma et al., 2016; Kim et al., 2015). Mice with sham surgery went through the same procedure as the UUO mice except that the ureter was not ligated. Two experimental protocols were used to determine renal antifibrotic actions of DM509 and in both protocols the mice were subjected to Sham surgery (n=6/protocol) or Unilateral Ureteral Obstruction (UUO) surgery to induce renal fibrosis. In Protocol 1, mice went through UUO surgery after 24 hours pre-treatment of DM509 (10 mg/kg/d, p.o., n=8) or vehicle (n=8) and blood and kidney tissue were collected at day 10 of the UUO surgery. Mice of the Protocol 2 treated with DM509 (n=8) or vehicle (n=8) after 3 days of UUO surgery and continued for 7 days followed by blood and kidney tissue collection. […] Kidney hydroxyproline levels were measured using a commercially available kit (Sigma Aldrich, USA). Blood urea nitrogen (BUN) is measured using a kit from Arbor Assay, USA and monocyte chemoattractant protein-1 (MCP-1) was measured using kit from R&D Systems, Inc., USA. Renal mRNA expression for several fibrotic [fibronectin, α-smooth muscle actin (α-SMA), fibroblast specific protein-1 (FSP-1], tubular injury [NGAL, kidney injury molecule-1 (KIM-1), Claudins1,3,4,5], inflammatory (TNF-α, IL1β, IL-6, ICAM, VCAM) were studied by Real Time-PCR (RT-PCR) analysis. RNeasy Mini Kit (QIAGEN, Calif., USA) was used according to the manufacturer's protocol and messenger RNA (mRNA) was prepared from each sample homogenate. The mRNA samples were quantified spectrophotometrically and 1 μg of total RNA was reverse-transcribed to cDNA using iScript™ Select cDNA Synthesis Kit (Bio-Rad, Hercules, Calif., USA). Gene expression was quantified by iScript One-Step RT-PCR Kit with SYBR green using the MyiQ™ Single Color Real-Time PCR Detection System (Bio-Rad Laboratories, Hercules, Calif., USA). Dissociation curve analysis was accomplished with iQ5 Optical System Software, Version 2.1 (Bio-Rad Laboratories, Hercules, Calif., USA), and each amplified sample analysed for homogeneity. […] All samples were run in triplicate and fold change in gene expression compared to controls determined by comparative threshold cycle (Ct) method. […]

UUO mice [5] = assay: UUO renal fibrosis model, Protocol 2 (interventional treatment); assay type: in vivo, Male C57Bl/6J mice
Protocol: This study was approved and conducted according to guidelines of the Institutional Animal Care and Use Committee, Medical College of Wisconsin. The Biomedical Resource Center at the Medical College of Wisconsin housed animals with free access to water and food and a 12/12 h light-dark cycle. Male C57B1/6J mice (8-10 weeks old) were purchased from Jackson Laboratories, Bar Harbor, Me. Mice were administered 2.0% isoflurane to induce anesthesia prior to UUO surgery. UUO surgery was conducted with by obstructing the left ureter proximal to the renal pelvis using a 6-o silk tie (Sharma et al., 2016; Kim et al., 2015). Mice with sham surgery went through the same procedure as the UUO mice except that the ureter was not ligated. Two experimental protocols were used to determine renal antifibrotic actions of DM509 and in both protocols the mice were subjected to Sham surgery (n=6/protocol) or Unilateral Ureteral Obstruction (UUO) surgery to induce renal fibrosis. In Protocol 1, mice went through UUO surgery after 24 hours pre-treatment of DM509 (10 mg/kg/d, p.o., n=8) or vehicle (n=8) and blood and kidney tissue were collected at day 10 of the UUO surgery. Mice of the Protocol 2 treated with DM509 (n=8) or vehicle (n=8) after 3 days of UUO surgery and continued for 7 days followed by blood and kidney tissue collection. Kidney samples for histological and immune-histological studies were fixed in 10% buffered formalin and stored at room temperature. Serum and tissue samples for biochemical and gene expression analysis were snap-frozen in liquid nitrogen and stored at […]. Kidney hydroxyproline levels were measured using a commercially available kit (Sigma Aldrich, USA). Blood urea nitrogen (BUN) is measured using a kit from Arbor Assay, USA and monocyte chemoattractant protein-1 (MCP-1) was measured using kit from R&D Systems, Inc., USA. Renal mRNA expression for several fibrotic [fibronectin, α-smooth muscle actin (α-SMA), fibroblast specific protein-1 (FSP-1], tubular injury [NGAL, kidney injury molecule-1 (KIM-1), Claudins1,3,4,5], inflammatory (TNF-α, IL1β, IL-6, ICAM, VCAM) were studied by Real Time-PCR (RT-PCR) analysis. RNeasy Mini Kit (QIAGEN, Calif., USA) was used according to the manufacturer's protocol and messenger RNA (mRNA) was prepared from each sample homogenate. The mRNA samples were quantified spectrophotometrically and 1 μg of total RNA was reverse-transcribed to cDNA using iScript™ Select cDNA Synthesis Kit (Bio-Rad, Hercules, Calif., USA). Gene expression was quantified by iScript One-Step RT-PCR Kit with SYBR green using the MyiQ™ Single Color Real-Time PCR Detection System (Bio-Rad Laboratories, Hercules, Calif., USA). Dissociation curve analysis was accomplished with iQ5 Optical System Software, Version 2.1 (Bio-Rad Laboratories, Hercules, Calif., USA), and each amplified sample analysed for homogeneity. Denaturation was done at 95° C. for 2 min followed by 40 cycles conducted at 95° C. for 10 s and at 60° C. for 30 s. All samples were run in triplicate and fold change in gene expression compared to controls determined by comparative threshold cycle (Ct) method. Target gene expression levels were determined by normalizing Ct values to two housekeeping genes. Statistical analyses were carried out using six samples from each experimental group and comparing to the control group. […] PAS-stained tissue was evaluated for tubular injury whilst PSR was used to determine collagen-positive renal interstitial fibrosis levels. Histopathological changes were scored as published previously and scores presented as a percentage area-fraction relative to the total area analysed. Tubular injury (PAS-cast areas) and interstitial fibrosis (PSR-collagen positive areas) scoring was performed in a blinded fashion by two observers. […]

C57BL/6JRj mice = assay: DIO NASH model (Gubra Amylin NASH Diet); assay type: in vivo; details: 12 weeks, DM or MH 10 mg/kg, Obeticholic Acid 30 mg/kg
Protocol: In vivo effects of the compounds (DM and MH) were examined in a NASH model which is outlined by the timeline in FIG. 8A. 41 weeks before treatment NASH was induced in C57BL/6JRj mice by using the Gubra Amylin NASH Diet. After stratification, randomization and base-line measurements the mice were divided into four groups (16 mice per group). Each group was either dosed with 10 mg/kg of DM or MH, 30 mg/kg Obeticholic Acid or vehicle for 12 weeks respectively. […] After four weeks of treatment (FIG. 8C) and after termination (FIG. 8D) biochemical parameters were determined to examine and compare liver health (plasma alanine aminotransferase and plasma aspartate aminotransferase) and lipid homeostasis (plasma triglycerides and plasma total cholesterol) among treatment groups and healthy mice. Furthermore, livers of all animals were analyzed by histopathology and the use of immuno-histochemistry (FIG. 9 and FIG. 10). […] Inflammatory effects in the treatment groups are shown in FIG. 13a in a similar manner including a post-treatment histopathological analysis of inflammatory markers for the different treatment groups in FIG. 13b to investigate the anti-inflammatory in vivo activity of the compounds.

FXR [6] = target: T2, FXR; assay: FXR binding (Kd)
[7] = DM509 pre-treatment 10 mg/kg/d p.o., day 10
[8] = interventional treatment 10 mg/kg/d, 7 days

IC50 (sEH [1]): 4 nM | IC50 (sEH [2]): 1 nM | EC50 (FXR [3]): 20 nM | FXR efficacy (FXR [3]): 35 % of GW4064 | FXR mode of action (FXR [3]): partial agonist
Structure (SMILES): CC(C)(C)c1ccc(C(=O)NCc2ccc(NS(C)(=O)=O)cc2Cl)cc1 [DM509]
lower collagen positive area than vehicle (UUO mice [4]; [7]): 54% | lower renal mRNA expression of fibrotic markers (α-SMA, fibronectin) than vehicle (UUO mice [4]; [7]): 40-60% | lower renal mRNA expression of inflammatory markers (UUO mice [4]; [7]): 50-80% | kidney fibrosis (in words) (UUO mice [4]; preventive treatment 10 mg/kg/d): decreased UUO kidney fibrosis | renal CD45 positive inflammatory cell infiltration (in words) (UUO mice [5]): reduced infiltration of these cells | renal VE-cadherin mRNA and CD31 positive cells (in words) (UUO mice [5]): markedly mitigated the decrease of VE-cadherin and CD31 positive cells | renal inflammation: renal MCP-1 level and cytokine (TNF-α, IL1β, IL6) expression (in words) (UUO mice [5]): markedly mitigated renal inflammation; also recorded: reduced renal inflammation | renal mRNA expression of claudins (in words) (UUO mice [5]): re-stored the mRNA expressions of claudins 1,3,4 and 5; also recorded: restoring claudin expressions | renal mRNA expression of tubular injury markers KIM-1 and NGAL (in words) (UUO mice [5]): mitigated this marked elevation | renal mRNA expression of vascular inflammatory markers ICAM and VCAM (in words) (UUO mice [5]): mitigated elevated expression | peritubular vascular density assessed by CD31 expression (in words) (UUO mice [5]; interventional treatment): mitigated vascular density loss | EMT: mesenchymal (FSP-1, fibronectin, α-SMA) and epithelial (E-cadherin) marker expressions in kidney (in words) (UUO mice [5]; interventional treatment 10 mg/kg/d): markedly attenuated EMT; also recorded: markedly reduced EMT | reduction of BUN (UUO mice [5]; interventional treatment 10 mg/kg/d in drinking water, 7 days): 40% | reduction of collagen positive area (UUO mice [5]; [8]): 65% | reduction of kidney hydroxyproline content (UUO mice [5]; [8]): 41% | reduction of renal ICAM and VCAM gene expression (UUO mice [5]; [8]): 40-50% | reduction of tubular injury markers (KIM-1, NGAL) (UUO mice [5]; [8]): 25-50% | renal fibrosis: collagen positive area and renal hydroxyproline content (in words) (UUO mice [5]; treatment from day 3 after UUO for 7 days): markedly mitigated renal fibrosis | cumulative daily food intake, difference among treatment groups (C57BL/6JRj mice): neither differences in cummulative daily food intake

IC50 (sEH [1]): < 1 nM | IC50 (sEH [2]): < 1 nM | FXR mode of action (FXR [3]): selective modulator | Kd (FXR [6]): 1400 nM
Structure (SMILES): CC(C)(C)c1ccc(C(=O)NCc2ccc(NS(C)(=O)=O)cc2Cl)s1 [MH]
cumulative daily food intake, difference among treatment groups (C57BL/6JRj mice): neither differences in cummulative daily food intake

Structure (SMILES): CC[C@H]1[C@@H](O)[C@@H]2[C@H](CC[C@]3(C)[C@@H]([C@H](C)CCC(=O)O)CC[C@@H]23)[C@@]2(C)CC[C@@H](O)C[C@@H]12 [Obeticholic Acid, reference compound]
cumulative daily food intake, difference among treatment groups (C57BL/6JRj mice): neither differences in cummulative daily food intake

Source: US20220273593A1, “COMPOUNDS AND COMPOSITIONS FOR TREATING KIDNEY DISEASE” (JOHANN WOLFGANG GOETHE-UNIVERSITÄT FRANKFURT AM MAIN, priority 2019, published 2022)
